The source made the active and inactive calls. No rule for the calls is given here.
Test system: CCRIS mutagenicity, Ames/micronucleus/aberration tests
Experiment: CCRIS mutagenicity studies
[1] = Test System: AMES SALMONELLA TYPHIMURIUM, Strain/Indicator: TA98, Metabolic Activation: NONE, Method: PREINCUBATION
[2] = Test System: AMES SALMONELLA TYPHIMURIUM, Strain/Indicator: TA100, Metabolic Activation: NONE, Method: PREINCUBATION
[3] = Test System: AMES SALMONELLA TYPHIMURIUM, Strain/Indicator: TA98, Metabolic Activation: NONE, Method: STANDARD PLATE
[4] = Test System: AMES SALMONELLA TYPHIMURIUM, Strain/Indicator: TA98, Metabolic Activation: RAT, LIVER, S-9, AROCLOR 1254, Method: STANDARD PLATE
[5] = Test System: AMES SALMONELLA TYPHIMURIUM, Strain/Indicator: TA100, Metabolic Activation: NONE, Method: STANDARD PLATE
[6] = Test System: AMES SALMONELLA TYPHIMURIUM, Strain/Indicator: TA100, Metabolic Activation: RAT, LIVER, S-9, AROCLOR 1254, Method: PREINCUBATION
[7] = Test System: AMES SALMONELLA TYPHIMURIUM, Strain/Indicator: TA100, Metabolic Activation: RAT, LIVER, S-9, AROCLOR 1254, Method: STANDARD PLATE
[8] = Test System: AMES SALMONELLA TYPHIMURIUM, Strain/Indicator: TA1535, Metabolic Activation: NONE, Method: STANDARD PLATE
[9] = Test System: AMES SALMONELLA TYPHIMURIUM, Strain/Indicator: TA1535, Metabolic Activation: RAT, LIVER, S-9, AROCLOR 1254, Method: STANDARD PLATE
[10] = Test System: AMES SALMONELLA TYPHIMURIUM, Strain/Indicator: TA1537, Metabolic Activation: NONE, Method: STANDARD PLATE
[11] = Test System: AMES SALMONELLA TYPHIMURIUM, Strain/Indicator: TA1537, Metabolic Activation: RAT, LIVER, S-9, AROCLOR 1254, Method: STANDARD PLATE

With `Oc1c(Cl)cc(Cl)c2cccnc12` as the compound, how does the mutagenic call [1] read?
Its mutagenic call is “inactive; negative”.

And the mutagenic call (Test System: AMES SALMONELLA TYPHIMURIUM, Strain/Indicator: TA98, Metabolic Activation: RAT, LIVER, S-9, Method: PREINCUBATION)?
Its mutagenic call is “inactive; negative”.

What about the mutagenic call [2] of the same compound?
Its mutagenic call is “inactive; negative”.

What about the mutagenic call (Test System: AMES SALMONELLA TYPHIMURIUM, Strain/Indicator: TA100, Metabolic Activation: RAT, LIVER, S-9, Method: PREINCUBATION) of the same compound?
Its mutagenic call is “inactive; negative”.

What does the source list for `CC(=O)[CH-]C(=O)c1ccccc1.CC(=O)[CH-]C(=O)c1ccccc1.CC[O-].CC[O-].[Ti+4]`?
mutagenic call [3]: inactive; negative; mutagenic call [4]: inactive; negative; mutagenic call [5]: inactive; negative; mutagenic call [6]: inactive; negative; mutagenic call [7]: inactive; negative; mutagenic call [8]: inactive; negative; mutagenic call (Test System: AMES SALMONELLA TYPHIMURIUM, Strain/Indicator: TA1535, Metabolic Activation: RAT, LIVER, S-9, AROCLOR 1254, Method: PREINCUBATION): inactive; negative; mutagenic call [9]: inactive; negative; mutagenic call [10]: inactive; negative; mutagenic call [11]: inactive; negative; mutagenic call (Test System: AMES SALMONELLA TYPHIMURIUM, Strain/Indicator: TA1538, Metabolic Activation: NONE, Method: STANDARD PLATE): inactive; negative; mutagenic call (Test System: AMES SALMONELLA TYPHIMURIUM, Strain/Indicator: TA1538, Metabolic Activation: RAT, LIVER, S-9, AROCLOR 1254, Method: STANDARD PLATE): inactive; negative

With `NC(=O)N(CCCO)N=O` as the compound, how does the mutagenic call (Test System: E. COLI B, Strain/Indicator: H/R30R, Metabolic Activation: NONE) read?
The mutagenic call was “active; positive”.

What about the mutagenic call (Test System: E. COLI B, Strain/Indicator: HS30R, Metabolic Activation: NONE) of the same compound?
The mutagenic call was “active; positive”.

What does the source list for `Cc1ccc(C=O)cc1`?
mutagenic call [1]: inactive; negative; mutagenic call (Test System: AMES SALMONELLA TYPHIMURIUM, Strain/Indicator: TA98, Metabolic Activation: RAT, LIVER, S-9, AROCLOR 1254, Method: PREINCUBATION): inactive; negative; mutagenic call [2]: inactive; negative; mutagenic call [6]: inactive; negative; mutagenic call (Test System: AMES SALMONELLA TYPHIMURIUM, Strain/Indicator: TA102, Metabolic Activation: NONE, Method: PREINCUBATION): inactive; negative; mutagenic call (Test System: AMES SALMONELLA TYPHIMURIUM, Strain/Indicator: TA102, Metabolic Activation: RAT, LIVER, S-9, AROCLOR 1254, Method: PREINCUBATION): inactive; negative

With `O=[N+]([O-])c1cccc(-c2ccc(O)c([N+](=O)[O-])c2)c1` as the compound, how does the mutagenic call [1] read?
The mutagenic call was “active; positive”.

With `Cc1cc2c(c3cc4ccccc4cc13)C=C[C@H](O)[C@H]2O` as the compound, how does the mutagenic call [6] read?
The mutagenic call was “active; positive”.

Which mutagenic call (Test System: E. COLI, Strain/Indicator: WP2 UVRA, Metabolic Activation: NONE, Method: FLUCTUATION TEST) does the source give for `ONc1ccc(Br)cc1` here?
The mutagenic call was “inactive; negative”.

Which mutagenic call [3] does the source give for `CCN(CC)c1ccc(N=Nc2ccc([N+](=O)[O-])cc2)cc1` here?
Its mutagenic call is “inactive; negative”.

What about the mutagenic call [4] of the same compound?
Its mutagenic call is “active; positive”.

And the mutagenic call [5]?
The mutagenic call was “inactive; negative”.

And the mutagenic call [7]?
The mutagenic call was “inactive; negative”.

What about the mutagenic call [8] of the same compound?
The mutagenic call was “inactive; negative”.

And the mutagenic call [9]?
Its mutagenic call is “inactive; negative”.

What about the mutagenic call [10] of the same compound?
The mutagenic call was “inactive; negative”.

What about the mutagenic call [11] of the same compound?
The mutagenic call was “inactive; negative”.

What about the mutagenic call (Test System: CHINESE HAMSTER V-79, Strain/Indicator: V-79 (HGPRT)/6-THIOGUANINE, Metabolic Activation: NONE) of the same compound?
The mutagenic call was “inactive; negative”.

And the mutagenic call (Test System: CHINESE HAMSTER V-79, Strain/Indicator: V-79 (HGPRT)/6-THIOGUANINE, Metabolic Activation: RAT, LIVER, S-9, KANECLOR 400)?
The mutagenic call was “inactive; negative”.

What about the mutagenic call (Test System: UDS RAT HEPATOCYTES, Strain/Indicator: THY INCORP, Metabolic Activation: NONE, Method: AUTORADIOGRAPHY) of the same compound?
Its mutagenic call is “inactive; negative”.

What does the source list for `CC(Cl)c1ccccc1` (centres undefined)?
mutagenic call [3]: inactive; negative; mutagenic call [5]: inactive; negative

What does the source list for `CC(C)=CCCC(C)CCO` (centres undefined)?
mutagenic call [3]: inactive; negative; mutagenic call (Test System: AMES SALMONELLA TYPHIMURIUM, Strain/Indicator: TA98, Metabolic Activation: S-9, Method: STANDARD PLATE): inactive; negative; mutagenic call [5]: inactive; negative

For `O=C/C=C/C=C/C(=O)O`, which mutagenic call (Test System: CHINESE HAMSTER V-79, Strain/Indicator: V-79 (HGPRT)/8-AZAGUANINE, Metabolic Activation: NONE) is on record?
The mutagenic call was “active; positive”.

Which results are given for `CC(C)=CCC/C(C)=C/CC/C(C)=C/C(=O)OCC(=O)[C@@]1(O)CC[C@H]2[C@@H]3CCC4=CC(=O)C=C[C@]4(C)[C@H]3[C@@H](O)C[C@@]21C`?
mutagenic call [3]: inactive; negative; mutagenic call (Test System: AMES SALMONELLA TYPHIMURIUM, Strain/Indicator: TA98, Metabolic Activation: RAT, LIVER, S-9, PHENOBARBITAL AND 5,6-BENZOFLAVONE, Method: STANDARD PLATE): inactive; negative; mutagenic call [5]: inactive; negative; mutagenic call (Test System: AMES SALMONELLA TYPHIMURIUM, Strain/Indicator: TA100, Metabolic Activation: RAT, LIVER, S-9, PHENOBARBITAL AND 5,6-BENZOFLAVONE, Method: STANDARD PLATE): inactive; negative; mutagenic call [8]: inactive; negative; mutagenic call (Test System: AMES SALMONELLA TYPHIMURIUM, Strain/Indicator: TA1535, Metabolic Activation: RAT, LIVER, S-9, PHENOBARBITAL AND 5,6-BENZOFLAVONE, Method: STANDARD PLATE): inactive; negative; mutagenic call [10]: inactive; negative; mutagenic call (Test System: AMES SALMONELLA TYPHIMURIUM, Strain/Indicator: TA1537, Metabolic Activation: RAT, LIVER, S-9, PHENOBARBITAL AND 5,6-BENZOFLAVONE, Method: STANDARD PLATE): inactive; negative; mutagenic call (Test System: E. COLI, Strain/Indicator: WP2 UVRA, Metabolic Activation: NONE, Method: STANDARD PLATE): inactive; negative; mutagenic call (Test System: E. COLI, Strain/Indicator: WP2 UVRA, Metabolic Activation: RAT, LIVER, S-9, PHENOBARBITAL AND 5,6-BENZOFLAVONE, Method: STANDARD PLATE): inactive; negative

— PubChem BioAssay AID1259407 (Chemical Carcinogenesis Research Information System (CCRIS), 2018)
